Test: Half life (T 1/2) estimated in the absence of light, in 50 mM Tris-HCl 1 mM EDTA (pH 7.4) buffer.
Format: ADME
Conditions: 50 mM Tris-HCl 1 mM EDTA buffer

SMILES	half-life
CC(c1ccc(Cl)cc1)N1CCC2(CC1)C(=O)NCN2c1ccc(N=[N+]=[N-])cc1 (centres undefined)	> 24 h
CN(c1ccc(N=[N+]=[N-])cc1)C1CCC2(O)C3Cc4ccc(O)c5c4C2(CCN3CC2CC2)C1O5 (centres undefined)	> 24 h
CC(c1ccc(Cl)cc1)N1CCC2(CC1)C(=O)NCN2c1ccc([N+]#N)cc1 (centres undefined)	5 h
CN(c1ccc([N+]#N)cc1)C1CCC2(O)C3Cc4ccc(O)c5c4C2(CCN3CC2CC2)C1O5 (centres undefined) [NALTREXONEDIAZONIUM]	5 h

Reference: ChEMBL document CHEMBL1124903 (J Med Chem, 1990)
